Here are results for 26 compounds from patent US12091398B2, “PD-L1 antagonist compound” (ADLAI NORTYE BIOPHARMA CO., LTD., priority 2019, dated 2024).

Molecules are shown by their SMILES. pEC50: −log10 of the molar value.

In one test the test system is PD-1/PD-L1 interaction. The test can be described thus: Cell based PD-1/PD-L1 NFAT reporter assay. The note with it: Homo sapiens, 6 h, PD-1/NFAT-Reporter-Jurkat cells co-cultured with TCR activator/PD-L1-CHO cells; 6 hour incubation; luciferase; calibrated to Atezolizumab 10 nM; read-out: Absolute EC50. Set-up: species or system human. The procedure: Cell Based PD-1/PD-L1 NFAT Reporter Assay
Compounds of the present patent were tested in a cell based PD-1/PD-L1 NFAT reporter assay.
The cell-based luciferase reporter assay is used for monitoring the PD-1/PD-L1 inhibitor by characterizing the biological activity of PD-1: PD-L1 interactions in cellular context. PD-1/NFAT-Reporter-Jurkat cells stably over-expressing human PD-1 with NFAT reporter are used as effector cells. TCR activator/PD-L1—CHO cells over-expressing PD-L1 and an engineered T cell receptor (TCR) activator are used as target cells. When these two cells are co-cultivated, TCR complexes on effector cells are activated by TCR activator on target cells, resulting in expression of the NFAT luciferase reporter. However, PD1 and PD-L1 (or PD-L2) ligation prevents TCR activation and suppresses the NFAT-responsive luciferase activity. This inhibition can be specifically reversed by anti-PD1 or anti-PD-L1 inhibitors. PD1/PD-L1 inhibitors block PD1:PD-L1 interaction and promote TCR activation, resulting in reactivation of the NFAT responsive luciferase reporter.
PD-1/NFAT—Reporter—Jurkat cell (Cat: 60535) and TCR activator/PD-L1—CHO cell (Cat: 60536) were purchased from BPS Bioscience. Anti-human PD-L1 antibody (Atezolizumab, Cat: A2004) was purchased from Selleck; luciferase reporter gene expression detection kit (ONE-Glo™ Luciferase Assay System, Cat: E6120) was purchased from Promega; multifunction plate reader (SpectraMax i3x) was purchased from Molecular Devices.
PD-1/NFAT—Reporter—Jurkat cells and TCR activator/PD-L1—CHO cells were cultured in recommended media respectively.
Harvest TCR activator/PD-L1-CHO cells from culture and seed cells at a density of 35,000 cells per well into 96-well microplate in 100 µl of growth medium. Incubate cells at 37° C. in a CO2 incubator overnight. Next day, discard the culture media, add diluted compound in assay medium for 30 min. Anti-PD-L1 antibody (Atezolizumab, final concentration 10 nM) and 0.1% DMSO were the positive and negative control, respectively. Harvest the PD-1/NFAT-reporter-Jurkat cells by centrifugation and add to the wells. After 6 hour incubation, perform luciferase assay using the ONE-Glo™ Luciferase Assay System, following the manufacturer's assay protocol.
Anti-PD-L1 antibody (Atezolizumnab, 10 nM) was used as positive control to calibrate the inhibition rate using the following equation: % inhibition=(Sample luminescence/Average vehicle group luminescence−1)/(Average PD-L1 group luminescence/Average vehicle group luminescence−1)×100%.
On to `COc1cc(Cn2ncc3c(-c4cccc(COc5cc(OC)c(CN[C@@H](CO)C(=O)O)cc5Cl)c4C)cccc32)c(Cl)cc1CN[C@@H](CO)C(=O)O` [Compound 66, (4-((3-(1-(4-((((S)-1-carboxy-2-hydroxyethyl)amino)methyl)-2-chloro-5-methoxybenzyl)-1H-indazol-4-yl)-2-methylbenzyl)oxy)-5-chloro-2-methoxybenzyl)-L-serine], for which the pEC50 is 6.51. On to `COc1cc(Cn2ncc3c(-c4cccc(COc5cc(OCc6cncc(C#N)c6)c(CN[C@@H](CO)C(=O)O)cc5Cl)c4C)cccc32)c(Cl)cc1CN[C@@H](CO)C(=O)O` [Compound 67, (4-((4-(3-((4-((((S)-1-carboxy-2-hydroxyethyl)amino)methyl)-2-chloro-5-((5-cyanopyridin-3-yl)methoxy)phenoxy)methyl)-2-methylphenyl)-1H-indazol-1-yl)methyl)-5-chloro-2-methoxybenzyl)-L-serine], for which the negative-log EC50 (pEC50) is 7.05. Turning to `COc1cc(OCc2cccc(-c3cccc4c3cnn4Cc3cc(OCc4cncc(C#N)c4)c(CNCCO)cc3Cl)c2C)c(Cl)cc1CNCCO` [Compound 68, 5-((4-chloro-5-((4-(3-((2-chloro-4-(((2-hydroxyethyl)amino)methyl)-5-methoxyphenoxy)methyl)-2-methylphenyl)-1H-indazol-1-yl)methyl)-2-(((2-hydroxyethyl)amino)methyl)phenoxy)methyl)nicotinonitrile], the pEC50 was 6.46.

As to `COc1cc(OCc2cccc(-c3cccc4c3cnn4Cc3cc(OCc4cncc(C#N)c4)c(CNC[C@@H]4CCC(=O)N4)cc3Cl)c2C)c(Cl)cc1CNC[C@@H]1CCC(=O)N1` [Compound 69, 5-((4-chloro-5-((4-(3-((2-chloro-5-methoxy-4-(((((S)-5-oxopyrrolidin-2-yl)methyl)amino)methyl)phenoxy)methyl)-2-methylphenyl)-1H-indazol-1-yl)methyl)-2-(((((S)-5-oxopyrrolidin-2-yl)methyl)amino)methyl)phenoxy)methyl)nicotinonitrile], the negative-log EC50 (pEC50) was 6.80. Turning to `COc1cc(OCc2cccc(-c3cccc4c3cnn4Cc3cc(OCc4cncc(C#N)c4)c(CN4CCC(C)(C(=O)O)C4)cc3Cl)c2C)c(Cl)cc1CN1CCC(C)(C(=O)O)C1` (centres unmarked) [Compound 70, 1-(4-((3-(1-(4-((3-carboxy-3-methylpyrrolidin-1-yl)methyl)-2-chloro-5-((5-cyanopyridin-3-yl)methoxy)benzyl)-1H-indazol-4-yl)-2-methylbenzyl)oxy)-5-chloro-2-methoxybenzyl)-3-methylpyrrolidine-3-carboxylic acid], the negative-log EC50 (pEC50) was 5.23.

As to `Cc1c(COc2cc(OCc3cncc(C#N)c3)c(CNCCO)cc2Cl)cccc1-c1cccc2c1cnn2Cc1cc(OCc2cncc(C#N)c2)c(CNCCO)cc1Cl` [Compound 71], the negative-log EC50 (pEC50) was 6.87. In the case of `COc1cc(OCc2cccc(-c3cccc4c3cnn4Cc3cc(OCc4cncc(C#N)c4)c(CN)cc3Cl)c2C)c(Cl)cc1CN` [Compound 72], the pEC50 was less than 5.95. Same read-out and setting: to `COc1cc(OCc2cccc(-c3cccc4c3cnn4Cc3cc(OCc4cncc(C#N)c4)c(CN)cc3Cl)c2C)c(Cl)cc1CN[C@@H](CO)C(=O)O` [Compound 73] belongs 6.35. In the case of `COc1cc(OCc2cccc(-c3cccc4c3cnn4Cc3cc(OCc4cncc(C#N)c4)c(CN[C@@H](CO)C(=O)O)cc3Cl)c2C)c(Cl)cc1CN` [Compound 74], the pEC50 is 5.57.

For the compound `Cc1c(COc2cc(OCc3cncc(C#N)c3)c(CN)cc2Cl)cccc1-c1cccc2c1cnn2Cc1cc(OCc2cncc(C#N)c2)c(CN)cc1Cl` [Compound 75], the pEC50 was 5.55. Consider `COc1nc(-c2cccc(-c3cccc4c3cnn4Cc3cc(OCc4cncc(C#N)c4)c(CN[C@@H](CO)C(=O)O)cc3Cl)c2Cl)ccc1CNC[C@@H]1CCC(=O)N1` [Compound 76], for which the pEC50 is 7.47. Take `N#Cc1cncc(COc2cc(Cn3ncc4c(-c5cccc(-c6ccc(CNC[C@@H]7CCC(=O)N7)cc6)c5Cl)cccc43)c(Cl)cc2CN[C@@H](CO)C(=O)O)c1` [Compound 77]: the negative logarithm of the EC50 (pEC50) was 7.55. `COc1cc(OCc2cccc(-c3cccc4c3c(C)nn4Cc3cc(OCc4cncc(C#N)c4)c(CN[C@@H](CO)C(=O)O)cc3Cl)c2C)c(Cl)cc1CN[C@@H](CO)C(=O)O` [Compound 78]: the negative-log EC50 (pEC50) was 5.79.

As for `N#Cc1cncc(COc2cc(OCc3cccc(-c4cccc5c4cnn5CCCCN4CC[C@@H](O)C4)c3Br)c(Cl)cc2CN2CC[C@H](O)C2)c1` [Compound 79], the pEC50 was less than 6.43. As for `N#Cc1cncc(COc2cc(OCc3cccc(-c4cccc5c4cnn5CCCCN4CC[C@@H](O)C4)c3Br)c(Cl)cc2CNCCO)c1` [Compound 80], the pEC50 is 6.50.

Consider `C[C@H](CO)NCc1cc(Cl)c(OCc2cccc(-c3cccc4c3cnn4CCCCN3CC[C@@H](O)C3)c2Br)cc1OCc1cncc(C#N)c1` [Compound 81], for which the pEC50 is 6.66. As for `N#Cc1cncc(COc2cc(OCc3cccc(-c4cccc5c4cnn5CCCCN4CC[C@@H](O)C4)c3Br)c(Cl)cc2CN2CC[C@@H](O)C2)c1` [Compound 82], the pEC50 is 6.47. On the same count and under the same terms, the figure for `N#Cc1cncc(COc2cc(OCc3cccc(-c4cccc5c4cnn5CCCCN4CC[C@@H](O)C4)c3Br)c(Cl)cc2CNC[C@@H]2CCC(=O)N2)c1` [Compound 83] is 6.63. Turning to `CC1(C(=O)O)CCN(Cc2cc(Cl)c(OCc3cccc(-c4cccc5c4cnn5CCCCN4CC[C@@H](O)C4)c3Br)cc2OCc2cncc(C#N)c2)C1` (some centres unmarked) [Compound 84], the pEC50 is 5.76.

As to `N#Cc1cncc(COc2cc(OCc3cccc(-c4cccc5c4cnn5CCCCN4CC[C@@H](O)C4)c3Br)c(Cl)cc2CN2CCCC2)c1` [Compound 85], the pEC50 was less than 6.43. On to `N#Cc1cncc(COc2cc(OCc3cccc(-c4cccc5c4cnn5CCCCNC[C@@H]4CCC(=O)N4)c3Br)c(Cl)cc2CN[C@@H](CO)C(=O)O)c1` [Compound 86], for which the pEC50 is 6.67.

On to `N#Cc1cncc(COc2cc(OCc3cccc(-c4cccc5c4cnn5CCCNC[C@@H]4CCC(=O)N4)c3Br)c(Cl)cc2CN[C@@H](CO)C(=O)O)c1` [Compound 87, (4-((2-bromo-3-(1-(3-((((S)-5-oxopyrrolidin-2-yl)methyl)amino)propyl)-1H-indazol-4-yl)benzyl)oxy)-5-chloro-2-((5-cyanopyridin-3-yl)methoxy)benzyl)-L-serine], for which the negative-log EC50 (pEC50) is 7.01. `Cc1c(OCCCN2CC[C@@H](O)C2)cccc1-c1ccnc2c1cnn2Cc1cc(OCc2cncc(C#N)c2)c(CN[C@@H](CO)C(=O)O)cc1Cl` [Compound 88, (5-chloro-2-((5-cyanopyridin-3-yl)methoxy)-4-((4-(3-(3-((R)-3-hydroxypyrrolidin-1-yl)propoxy)-2-methylphenyl)-1H-pyrazolo[3,4-b]pyridin-1-yl)methyl)benzyl)-L-serine]: the negative-log EC50 (pEC50) was 5.99. Same read-out and setting: the figure for `Cc1c(OCCCN2CC[C@@H](O)C2)cccc1-c1cncc2c1cnn2Cc1cc(OCc2cncc(C#N)c2)c(CN[C@@H](CO)C(=O)O)cc1Cl` [Compound 89, (5-chloro-2-((5-cyanopyridin-3-yl)methoxy)-4-((4-(3-(3-((R)-3-hydroxypyrrolidin-1-yl)propoxy)-2-methylphenyl)-1H-pyrazolo[3,4-c]pyridin-1-yl)methyl)benzyl)-L-serine] is 5.26; for `COc1cc(Cn2ccc3c(-c4cccc(-c5ccc(CNC[C@@H]6CCC(=O)N6)cc5)c4Cl)cccc32)c(Cl)cc1CN[C@@H](CO)C(=O)O` [Compound 91, (5-chloro-4-((4-(2-chloro-4′-(((((S)-5-oxopyrrolidin-2-yl)methyl)amino)methyl)-[1,1′-biphenyl]-3-yl)-1H-indol-1-yl)methyl)-2-methoxybenzyl)-L-serine] it is 6.29.

The same test, now with this note: Homo sapiens; PD-1/NFAT-Reporter-Jurkat cells co-cultured with TCR activator/PD-L1-CHO cells; 6 hour incubation; luciferase; calibrated to Atezolizumab 10 nM; read-out: Absolute EC50.
Regarding `N#Cc1cncc(COc2cc(Cn3ncc4c(-c5cccc(OCc6ccc(CN7CC[C@@H](O)C7)cc6)c5Cl)cccc43)c(Cl)cc2CN[C@@H](CO)C(=O)O)c1` [Compound 90, (5-chloro-4-((4-(2-chloro-3-((4-(((R)-3-hydroxypyrrolidin-1-yl)methyl)benzyl)oxy)phenyl)-1H-indazol-1-yl)methyl)-2-((5-cyanopyridin-3-yl)methoxy)benzyl)-L-serine], the pEC50 was 5.97.
